The results in this text go back to ChEMBL document CHEMBL5303304, “EUbOPEN Chemogenomics Library - IncuCyte” (2023).

Assay type in all cases: toxicity, cell-based
The subject of data set [1] is U2OS. Put plainly: Incucyte cell viability with U2OS. The settings on record: human, 10 µM, compound concentration 10 uM.
In data set [2] the test system is Fibroblast. Put plainly: Incucyte cell viability with human fibroblast. To be noted: 10 µM, compound concentration 10 uM.
For data set [3], the system named is HEK-293T. Briefly: Incucyte cell viability with HEK293T. The settings on record: human, 10 µM, compound concentration 10 uM.

The structures appear in SMILES notation.
Note: unitless GR value; below 1 slowed growth and below 0 cell loss.

For the molecule `COc1cc(C(=O)NC2CCN(C)CC2)ccc1Nc1ncc2c(n1)N(C1CCCC1)CC(F)(F)C(=O)N2C`, the “Growth Rate” value in data set [1] (0 h, replicate number 1) is reported as -0.99; in data set [1] (0 h, replicate number 2) it was 0.71; in data set [1] (6 h, replicate number 1), 0.46; in data set [1] (6 h, replicate number 2), 0.18; in data set [1] (12 h, replicate number 1), 0.23; in data set [1] (12 h, replicate number 2), -0.13. The “Growth Rate” value is 0.12 in data set [1] (18 h, replicate number 1); -0.08 in data set [1] (18 h, replicate number 2); 0.2 in data set [1] (24 h, replicate number 1); -0.03 in data set [1] (24 h, replicate number 2); 0.51 in data set [2] (12 h, replicate number 1); 0.72 in data set [2] (12 h, replicate number 2). For the same molecule, the “Growth Rate” value in data set [2] (18 h, replicate number 1) was 0.36; in data set [2] (18 h, replicate number 2), 0.45; in data set [2] (24 h, replicate number 1), 0.28; in data set [2] (24 h, replicate number 2), 0.42; in data set [3] (6 h, replicate number 1), 0.85; in data set [3] (6 h, replicate number 2), -0.29. For the same molecule, the “Growth Rate” value in data set [3] (12 h, replicate number 1) was 0.86; in data set [3] (12 h, replicate number 2) it was -0.06; in data set [3] (18 h, replicate number 1), 0.53; in data set [3] (18 h, replicate number 2) it was -0.2; in data set [3] (24 h, replicate number 1), 0.26; in data set [3] (24 h, replicate number 2), -0.23.
With `COc1ccccc1-c1cc(Nc2cccc(CS(N)(=O)=O)c2)ncn1`, the “Growth Rate” value in data set [1] (6 h, replicate number 1) worked out at 0.81; in data set [1] (6 h, replicate number 2), 0.46; in data set [1] (12 h, replicate number 1), 0.51; in data set [1] (12 h, replicate number 2), 0.46; in data set [1] (18 h, replicate number 1) it was 0.22; in data set [1] (18 h, replicate number 2), 0.43. Moreover, the “Growth Rate” value in data set [1] (24 h, replicate number 1) is 0.46; in data set [1] (24 h, replicate number 2), 0.49; in data set [2] (0 h, replicate number 2), -0.71; in data set [2] (6 h, replicate number 1) it was 0.43; in data set [2] (12 h, replicate number 1), 0.63; in data set [2] (18 h, replicate number 1), 0.61. For the same molecule, the “Growth Rate” value in data set [2] (18 h, replicate number 2) is listed as 0.93; in data set [2] (24 h, replicate number 1), 0.52; in data set [2] (24 h, replicate number 2) it was 0.59; in data set [3] (6 h, replicate number 1) it was -0.26; in data set [3] (6 h, replicate number 2), -0.38; in data set [3] (12 h, replicate number 1), -0.07. Moreover, the “Growth Rate” value in data set [3] (12 h, replicate number 2) was -0.15; in data set [3] (18 h, replicate number 1), 0.16; in data set [3] (18 h, replicate number 2) it was 0.21; in data set [3] (24 h, replicate number 1) it was 0.38; in data set [3] (24 h, replicate number 2), 0.33.
Regarding `Cc1cc(-c2cnc(N)c3c(-c4ccc5scnc5c4)csc23)n(C)n1`, the “Growth Rate” value in data set [1] (0 h, replicate number 1) is -0.98; in data set [1] (0 h, replicate number 2), -0.85; in data set [1] (6 h, replicate number 2), 0.91; in data set [1] (12 h, replicate number 1), 0.94; in data set [1] (12 h, replicate number 2), -0.33; in data set [1] (18 h, replicate number 1), 0.91. Also, the “Growth Rate” value was -1 in data set [2] (0 h, replicate number 1); 0.88 in data set [2] (6 h, replicate number 1); 0.31 in data set [2] (6 h, replicate number 2); 0.42 in data set [2] (12 h, replicate number 1); 0.67 in data set [2] (12 h, replicate number 2); 0.91 in data set [2] (18 h, replicate number 1). Further, the “Growth Rate” value is on record as 0.9 in data set [2] (18 h, replicate number 2); 0.92 in data set [2] (24 h, replicate number 2); -0.34 in data set [3] (6 h, replicate number 1); -0.15 in data set [3] (12 h, replicate number 1); 0.02 in data set [3] (18 h, replicate number 1); 0.06 in data set [3] (24 h, replicate number 1).
Consider `CCN(C)S(=O)(=O)Nc1cccc(-c2ccc3c(NC(=O)C4CC4)n[nH]c3c2)c1`, for which the “Growth Rate” value in data set [1] (0 h, replicate number 2) is -0.42; in data set [1] (6 h, replicate number 1), -0.66; in data set [1] (6 h, replicate number 2), -0.06; in data set [1] (12 h, replicate number 1), -0.32; in data set [1] (12 h, replicate number 2), 0.08; in data set [1] (18 h, replicate number 1), -0.12. Moreover, the “Growth Rate” value in data set [1] (18 h, replicate number 2) is 0.1; in data set [1] (24 h, replicate number 1), 0.11; in data set [1] (24 h, replicate number 2), 0.17; in data set [2] (6 h, replicate number 1), -0.58; in data set [2] (6 h, replicate number 2), -0.37; in data set [2] (12 h, replicate number 1), -0.17. In addition, the “Growth Rate” value in data set [2] (12 h, replicate number 2) is on record as -0.25; in data set [2] (18 h, replicate number 1) it was -0.01; in data set [2] (18 h, replicate number 2), -0.16; in data set [2] (24 h, replicate number 1) it was 0.13; in data set [2] (24 h, replicate number 2), -0.03; in data set [3] (6 h, replicate number 1), -0.21. Also, the “Growth Rate” value is given as -0.69 in data set [3] (6 h, replicate number 2); -0.1 in data set [3] (12 h, replicate number 1); -0.46 in data set [3] (12 h, replicate number 2); -0.03 in data set [3] (18 h, replicate number 1); -0.33 in data set [3] (18 h, replicate number 2); 0 in data set [3] (24 h, replicate number 1). Also, the “Growth Rate” value in data set [3] (24 h, replicate number 2) was -0.21.
For the molecule `COc1cc(N2CCN(C)CC2)ccc1Nc1ncc2c(n1)N(C)c1ccccc1C(=O)N2CC(F)(F)F`, the “Growth Rate” value in data set [1] (6 h, replicate number 2) was found to be 0.9; in data set [1] (12 h, replicate number 1) it was 0.97; in data set [1] (18 h, replicate number 1), 0.99; in data set [1] (18 h, replicate number 2), 0.87; in data set [1] (24 h, replicate number 2) it was 0.83; in data set [2] (6 h, replicate number 1), 0.44. Besides, the “Growth Rate” value is given as 0.47 in data set [2] (6 h, replicate number 2); 0.43 in data set [2] (12 h, replicate number 1); 0.51 in data set [2] (12 h, replicate number 2); 0.09 in data set [2] (18 h, replicate number 1); 0.31 in data set [2] (18 h, replicate number 2); -0.1 in data set [2] (24 h, replicate number 1). Also, the “Growth Rate” value in data set [2] (24 h, replicate number 2) is reported as 0.08; in data set [3] (6 h, replicate number 1) it was -0.03; in data set [3] (6 h, replicate number 2), 0; in data set [3] (12 h, replicate number 1) it was 0.26; in data set [3] (12 h, replicate number 2) it was 0.22; in data set [3] (18 h, replicate number 1), 0.22. Moreover, the “Growth Rate” value in data set [3] (18 h, replicate number 2) was found to be 0.29; in data set [3] (24 h, replicate number 1) it was 0.27; in data set [3] (24 h, replicate number 2) it was 0.36.
`CC(C)c1cnn2c(NCc3ccccc3)cc(NCCCCCCN)nc12.Cl`: the “Growth Rate” value was 0.64 in data set [1] (0 h, replicate number 2); 0.69 in data set [1] (6 h, replicate number 2); 0.99 in data set [1] (12 h, replicate number 1); 0.78 in data set [1] (12 h, replicate number 2); 0.92 in data set [1] (18 h, replicate number 1); 0.76 in data set [1] (18 h, replicate number 2). The “Growth Rate” value is listed as 0.87 in data set [1] (24 h, replicate number 1); 0.71 in data set [1] (24 h, replicate number 2); -0.08 in data set [2] (0 h, replicate number 2); 0.36 in data set [2] (6 h, replicate number 1); 0.27 in data set [2] (6 h, replicate number 2); 0.36 in data set [2] (12 h, replicate number 1). Also, the “Growth Rate” value in data set [2] (12 h, replicate number 2) is reported as 0.65; in data set [2] (18 h, replicate number 1), 0.9; in data set [2] (18 h, replicate number 2), 0.69; in data set [2] (24 h, replicate number 1), 1; in data set [2] (24 h, replicate number 2), 0.87; in data set [3] (6 h, replicate number 1), -0.19. For the same molecule, the “Growth Rate” value in data set [3] (6 h, replicate number 2) is given as -0.03; in data set [3] (12 h, replicate number 1), 0.25; in data set [3] (12 h, replicate number 2), 0.46; in data set [3] (18 h, replicate number 1), 0.64; in data set [3] (18 h, replicate number 2) it was 0.6; in data set [3] (24 h, replicate number 1) it was 0.65. Also, the “Growth Rate” value in data set [3] (24 h, replicate number 2) is given as 0.66.
With `COc1cc(-c2cncc(-c3cnn(C4CCNCC4)c3)c2)cc(OC)c1OC`, the “Growth Rate” value in data set [1] (0 h, replicate number 1) is reported as -1; in data set [1] (6 h, replicate number 2), 0.55; in data set [1] (18 h, replicate number 2), 0.99; in data set [1] (24 h, replicate number 2) it was 0.94; in data set [2] (0 h, replicate number 1), 0.47; in data set [2] (6 h, replicate number 2), 0.74. The “Growth Rate” value was found to be 0.97 in data set [2] (12 h, replicate number 2); 0.86 in data set [2] (24 h, replicate number 1); 0.9 in data set [2] (24 h, replicate number 2); 0.84 in data set [3] (6 h, replicate number 1); 0.78 in data set [3] (6 h, replicate number 2); 0.82 in data set [3] (12 h, replicate number 2). The “Growth Rate” value in data set [3] (18 h, replicate number 2) worked out at 0.73; in data set [3] (24 h, replicate number 2), 0.77.
As to `CC(C)C(=O)N[C@@H]1CCN(C(=O)Nc2nc3c(s2)-c2nc(-c4ccccc4Cl)ncc2CC3)C1`, the “Growth Rate” value in data set [1] (12 h, replicate number 1) is 0.94; in data set [1] (12 h, replicate number 2), 0.9; in data set [1] (18 h, replicate number 1) it was 0.91; in data set [1] (18 h, replicate number 2), 0.77; in data set [1] (24 h, replicate number 1), 0.88; in data set [1] (24 h, replicate number 2), 0.69. Moreover, the “Growth Rate” value in data set [2] (0 h, replicate number 1) was -0.95; in data set [3] (6 h, replicate number 1) it was 0.21; in data set [3] (6 h, replicate number 2), -0.05; in data set [3] (12 h, replicate number 1) it was 0.16; in data set [3] (12 h, replicate number 2) it was -0.08; in data set [3] (18 h, replicate number 1), 0.29. In addition, the “Growth Rate” value stood at 0.03 in data set [3] (18 h, replicate number 2); 0.37 in data set [3] (24 h, replicate number 1); 0.15 in data set [3] (24 h, replicate number 2).
As to `CN1C(=O)c2ccccc2N(C)c2nc(Nc3cnn(C4CCNCC4)c3)ncc21`, the “Growth Rate” value in data set [1] (0 h, replicate number 2) is given as 0.12; in data set [1] (6 h, replicate number 1), -0.35; in data set [1] (6 h, replicate number 2) it was 0.15; in data set [1] (12 h, replicate number 1), 0.07; in data set [1] (12 h, replicate number 2), 0.18; in data set [1] (18 h, replicate number 1) it was 0.07. For the same molecule, the “Growth Rate” value in data set [1] (18 h, replicate number 2) was 0.23; in data set [1] (24 h, replicate number 1), 0.15; in data set [1] (24 h, replicate number 2), 0.24; in data set [2] (0 h, replicate number 1), -0.99; in data set [2] (0 h, replicate number 2), -0.07; in data set [2] (12 h, replicate number 2), 0.94. Besides, the “Growth Rate” value is recorded as 0.43 in data set [2] (18 h, replicate number 2); 0.43 in data set [2] (24 h, replicate number 2); -0.59 in data set [3] (6 h, replicate number 1); -0.85 in data set [3] (6 h, replicate number 2); -0.25 in data set [3] (12 h, replicate number 1); -0.41 in data set [3] (12 h, replicate number 2). Further, the “Growth Rate” value is 0.19 in data set [3] (18 h, replicate number 1); -0.15 in data set [3] (18 h, replicate number 2); 0.37 in data set [3] (24 h, replicate number 1); 0.07 in data set [3] (24 h, replicate number 2).
